# What was measured:
# JAK3 = experiment: Phosphorylation of JAK3 in L6 myotubes (western blot); assay type: cell-based, rat; details: physiological concentration range (0.1–10 nM), 15 min
# Description: (§1) For in vitro cell culture experiments, after serum starvation for 18 h, myotubes were treated with various concentrations of quercetin or isorhamnetin (0.1–10 nM) for 15 min; DMSO (final 0.1%) was used as a vehicle control. As positive controls, 100 nM insulin, 1 mM AICAR, 10 nM leptin, or 100 ng/mL IL-15 were used for insulin, AMPK, JAK2/STAT, or JAK3/STAT signalling pathways, respectively. Cells were treated with insulin or AICAR for 15 min, leptin for 60 min, or IL-15 for 24 h. Whole protein and plasma membrane fractions were prepared from myotubes, as previously described. For in vivo experiment, plasma membrane fraction and tissue lysate of soleus muscle were prepared.
# (§2) Translocation of GLUT4 to the plasma membrane, as well as expression and phosphorylation levels of GLUT4-related regulators were estimated by western blot analysis. Briefly, equal amounts of proteins were separated by sodium dodecyl sulfate-polyacrylamide gel electrophoresis (SDS-PAGE). […] Specific immune complexes were developed using ImmunoStar® LD and detected with an ATTO Light-Capture II Western Blotting Detection System. Individual band density was calculated by ImageJ and normalized to the control.
# STAT1 = experiment: Phosphorylation of STAT1 in L6 myotubes (western blot); assay type: cell-based, rat; details: 0.1–10 nM, 15 min
# Description: as §1, §2
# STAT5 = experiment: Phosphorylation of STAT5 in L6 myotubes (western blot); assay type: cell-based, rat; details: 1 nM, 15 min
# Description: as §1, §2
# GLUT4 = GLUT4 translocation in L6 myotubes after siRNA knockdown of AMPKα, JAK2 or JAK3; assay type: cell-based, rat; details: for compound-induced GLUT4 translocation after siRNA for AMPK: siAMPKα 50 nM 48 h, 1 mM AICAR; for compound-induced GLUT4 translocation after siRNA for AMPK / compound-induced GLUT4 translocation after siRNA for JAK2: 1 nM quercetin or isorhamnetin; for compound-induced GLUT4 translocation after siRNA for JAK2: siJAK2 50 nM 48 h, 10 nM leptin
# Description: as §1
# Translocation of GLUT4 to the plasma membrane, as well as expression and phosphorylation levels of GLUT4-related regulators were estimated by western blot analysis. Briefly, equal amounts of proteins were separated by sodium dodecyl sulfate-polyacrylamide gel electrophoresis (SDS-PAGE). Separated proteins were transferred onto a polyvinylidene fluoride membrane and nonspecific binding sites were blocked using either Blocking One (to detect unphosphorylated proteins) or Blocking One-P (to detect phosphoproteins). The membrane was incubated overnight with an appropriate primary antibody for GLUT4 (1:5000), IR (1:10000), p-IRS1 (1:5000), IRS1 (1:5000), p-PI3K (1:5000), PI3K (1:10000), p-Akt (1:5000), Akt (1:10000), p-AMPKα (1:5000), AMPKα (1:10000), p-ACC (1:5000), ACC (1:10000), p-LKB1 (1:5000), LKB1 (1:10000), p-JAK2 (1:5000), JAK2 (1:5000), p-JAK3 (1:5000), JAK3 (1:10000), p-STAT1 (1:5000), STAT1 (1:10000), p-STAT3 (1:5000), STAT3 (1:10000), p-STAT5 (1:5000), STAT5 (1:10000), or β-actin (1:20000), and subsequently treated with the corresponding horseradish peroxidase-conjugated secondary antibody (1:50000) for 1 h. Specific immune complexes were developed using ImmunoStar® LD and detected with an ATTO Light-Capture II Western Blotting Detection System. Individual band density was calculated by ImageJ and normalized to the control.
# Mature myotubes were cultured in antibiotic-free medium and transfected with siRNA at a final concentration of 50 nM using Lipofectamine RNAiMAX transfection reagent according to the manufacturer’s instructions. In brief, mature myotubes were transfected with siRNA in Opti-MEM for 48 h. Subsequently, the medium was changed to fresh Opti-MEM and cells were treated with the indicated concentrations of quercetin or isorhamnetin.
# STAT3 = experiment: Phosphorylation of STAT3 in L6 myotubes (western blot); assay type: cell-based, rat; details: 10 nM, 15 min
# Description: as §1, §2
# [1] = cited from earlier work
# PKCζ/λ = experiment: Phosphorylation of PKCζ/λ in L6 myotubes; assay type: cell-based, rat; details: 10 nM, data not shown
# IRS1 = experiment: Phosphorylation of IRS1 in L6 myotubes (western blot); assay type: cell-based, rat; details: 0.1–10 nM, 15 min
# Description: as §1, §2
# ACC = experiment: Phosphorylation of ACC in L6 myotubes (western blot); assay type: cell-based, rat; details: 0.1 nM or 1 nM, 15 min
# Description: as §1, §2
Compound,JAK3 phosphorylation (JAK3),phosphorylation of STAT1 (STAT1),phosphorylation of STAT5 (STAT5),compound-induced GLUT4 translocation after siRNA for AMPK (GLUT4),compound-induced GLUT4 translocation after siRNA for JAK2 (GLUT4),"compound-induced GLUT4 translocation after siRNA for JAK3 (GLUT4; siJAK3 50 nM 48 h, 1 nM isorhamnetin, not significant)",phosphorylation of STAT3 (STAT3),"basal concentrations in the blood ([1]; humans, after consumption of 80–100 mg of quercetin equivalent)",absorption rate ([1]; in humans),phosphorylation of PKCζ/λ (PKCζ/λ),phosphorylation of IRS1 (IRS1),phosphorylation of ACC (ACC)
"COc1cc(-c2oc3cc(O)cc(O)c3c(=O)c2O)ccc1O [isorhamnetin, 3′-O-methyl quercetin]",effectively promoted,but not STAT1,increased,failed to suppress,abolished,slightly decreased,increased,–,–,–,–,–
"O=c1c(O)c(-c2ccc(O)c(O)c2)oc2cc(O)cc(O)c12 [quercetin, 3,3′,4′,5,7-pentahydroxy flavone]",–,–,–,almost completely abolished,without affecting,–,–,300 to 750 nM,9–20%,phosphorylated,dose-dependently promoted,phosphorylation was increased

# Reference: publication PMC6389993, “Quercetin and its metabolite isorhamnetin promote glucose uptake through different signalling pathways in myotubes” (Scientific Reports, 2019)
